Here are results for 2 molecules from article PMC6120666 (The EMBO Journal, 2018).

Experiment [1] concerns the target T1, proteins of U2OS cell lysate (Homo sapiens, UniProt O43143).
T1 construct: Proteins enriched by c-ponatinib from U2OS cell lysate; endogenous in cells; host or cells: U2OS cell lysate
The experiment can be described thus: Drug affinity chromatography with c-ponatinib and LC-MS/MS (ponatinib interactome). The class given is binding. The following applies: DHX15, Putative pre-mRNA-splicing factor ATP-dependent RNA helicase DHX15. An outline of the steps: (§1)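 Proteins were identified by nano-UPLC–MS/MS after elution with formic acid and trypsin digestion. They were captured from U2OS lysate (2 mg protein per pulldown, NP-40 buffer) on amine-coupled NHS beads during a 2 h incubation at 4 °C.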

The target of experiment [2] is T2, proteins of U2OS cell lysate (Homo sapiens, UniProt O60664).
T2 construct: Proteins enriched by c-ponatinib from U2OS cell lysate; endogenous in cells; host or cells: U2OS cell lysate
The experiment is described as above. The experiment is classed as binding. Particulars: PLIN3, Perilipin-3. A digest of the protocol:
as §1

The target in experiment [3] is T3, proteins of U2OS cell lysate (Homo sapiens, UniProt P00387).
T3 construct: Proteins enriched by c-ponatinib from U2OS cell lysate; endogenous in cells; host or cells: U2OS cell lysate
Described as above. The experiment is classed as binding. The following applies: CYB5R3, NADH-cytochrome b5 reductase 3. An outline of the steps: as §1

Experiment [4] addresses T4, proteins of U2OS cell lysate (Homo sapiens, UniProt P07947).
T4 construct: Proteins enriched by c-ponatinib from U2OS cell lysate; endogenous in cells; host or cells: U2OS cell lysate
The description is as above. The class given is binding. The following applies: YES1, Tyrosine-protein kinase Yes. An outline of the steps:
as §1

In experiment [5] the target is T5, proteins of U2OS cell lysate (Homo sapiens, UniProt P23528).
T5 construct: Proteins enriched by c-ponatinib from U2OS cell lysate; endogenous in cells; host or cells: U2OS cell lysate
The experiment is described as above. Particulars: CFL1, Cofilin-1. The experiment is classed as binding. An outline of the steps: as §1

The target of experiment [6] is T6, proteins of U2OS cell lysate (Homo sapiens, UniProt P27708).
T6 construct: Proteins enriched by c-ponatinib from U2OS cell lysate; endogenous in cells; host or cells: U2OS cell lysate
The experiment is described as above. Particulars: CAD, CAD protein. The experiment is classed as binding. A digest of the protocol:
as §1

Experiment [7] addresses T7, proteins of U2OS cell lysate (Homo sapiens, UniProt P28070).
T7 construct: Proteins enriched by c-ponatinib from U2OS cell lysate; endogenous in cells; host or cells: U2OS cell lysate
The description is as above. The experiment is classed as binding. Particulars: PSMB4, Proteasome subunit beta type-4. A digest of the protocol: as §1

Experiment [8] deals with T8, proteins of U2OS cell lysate (Homo sapiens, UniProt P29323).
T8 construct: Proteins enriched by c-ponatinib from U2OS cell lysate; endogenous in cells; host or cells: U2OS cell lysate
The experiment is described as above. Particulars: EPHB2, Ephrin type-B receptor 2. The experiment is classed as binding. An outline of the steps:
as §1

The target of experiment [9] is T9, proteins of U2OS cell lysate (Homo sapiens, UniProt P34932).
T9 construct: Proteins enriched by c-ponatinib from U2OS cell lysate; endogenous in cells; host or cells: U2OS cell lysate
The experiment is described as above. The experiment is classed as binding. The following applies: HSPA4, Heat shock 70 kDa protein 4. An outline of the steps: as §1

Experiment [10] addresses T10, proteins of U2OS cell lysate (Homo sapiens, UniProt P49792).
T10 construct: Proteins enriched by c-ponatinib from U2OS cell lysate; endogenous in cells; host or cells: U2OS cell lysate
The experiment is described as above. Particulars: RANBP2, E3 SUMO-protein ligase RanBP2. The class given is binding. A digest of the protocol:
as §1

The target in experiment [11] is T11, proteins of U2OS cell lysate (Homo sapiens, UniProt Q13163).
T11 construct: Proteins enriched by c-ponatinib from U2OS cell lysate; endogenous in cells; host or cells: U2OS cell lysate
The experiment is described as above. The experiment is classed as binding. Particulars: MAP2K5, Dual specificity mitogen-activated protein kinase kinase 5. A digest of the protocol: as §1

For experiment [12], the target named is T12, proteins of U2OS cell lysate (Homo sapiens, UniProt Q13561).
T12 construct: Proteins enriched by c-ponatinib from U2OS cell lysate; endogenous in cells; host or cells: U2OS cell lysate
The experiment is described as above. The class given is binding. Particulars: DCTN2, Dynactin subunit 2. A digest of the protocol: as §1

Experiment [13] concerns the target T13, proteins of U2OS cell lysate (Homo sapiens, UniProt Q15149).
T13 construct: Proteins enriched by c-ponatinib from U2OS cell lysate; endogenous in cells; host or cells: U2OS cell lysate
Described as above. The experiment is classed as binding. Particulars: PLEC, Plectin. An outline of the steps: as §1

The target of experiment [14] is T14, proteins of U2OS cell lysate (Homo sapiens, UniProt Q6PJG6).
T14 construct: Proteins enriched by c-ponatinib from U2OS cell lysate; endogenous in cells; host or cells: U2OS cell lysate
Described as above. The following applies: BRAT1, BRCA1-associated ATM activator 1. The class given is binding. An outline of the steps: as §1

Experiment [15] has as its system C57Bl6/J mice. Set-up: method as in Nachbur et al, 2015. Particulars: ref Nachbur et al, 2015; cited from earlier work.

T3 sequence (P00387 whole entry): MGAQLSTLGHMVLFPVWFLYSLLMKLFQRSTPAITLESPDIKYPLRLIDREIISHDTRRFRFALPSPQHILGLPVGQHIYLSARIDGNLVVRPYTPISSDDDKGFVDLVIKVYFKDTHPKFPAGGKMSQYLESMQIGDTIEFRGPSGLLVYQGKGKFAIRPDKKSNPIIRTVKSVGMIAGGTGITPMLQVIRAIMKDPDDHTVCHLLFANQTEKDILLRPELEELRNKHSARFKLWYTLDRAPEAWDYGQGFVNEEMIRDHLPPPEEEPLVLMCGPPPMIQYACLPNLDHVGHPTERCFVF
T12 sequence (Q13561 whole entry): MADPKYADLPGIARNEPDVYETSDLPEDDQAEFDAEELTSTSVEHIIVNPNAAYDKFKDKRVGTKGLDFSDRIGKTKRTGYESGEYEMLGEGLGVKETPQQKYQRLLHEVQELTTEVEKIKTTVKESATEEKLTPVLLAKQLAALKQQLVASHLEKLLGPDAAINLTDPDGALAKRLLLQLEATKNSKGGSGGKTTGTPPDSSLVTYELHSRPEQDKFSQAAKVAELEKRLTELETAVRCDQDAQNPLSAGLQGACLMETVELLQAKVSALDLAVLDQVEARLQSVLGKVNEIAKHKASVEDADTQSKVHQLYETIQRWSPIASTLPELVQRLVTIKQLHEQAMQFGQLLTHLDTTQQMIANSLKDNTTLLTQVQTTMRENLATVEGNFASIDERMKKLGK
T1 sequence (O43143 whole entry): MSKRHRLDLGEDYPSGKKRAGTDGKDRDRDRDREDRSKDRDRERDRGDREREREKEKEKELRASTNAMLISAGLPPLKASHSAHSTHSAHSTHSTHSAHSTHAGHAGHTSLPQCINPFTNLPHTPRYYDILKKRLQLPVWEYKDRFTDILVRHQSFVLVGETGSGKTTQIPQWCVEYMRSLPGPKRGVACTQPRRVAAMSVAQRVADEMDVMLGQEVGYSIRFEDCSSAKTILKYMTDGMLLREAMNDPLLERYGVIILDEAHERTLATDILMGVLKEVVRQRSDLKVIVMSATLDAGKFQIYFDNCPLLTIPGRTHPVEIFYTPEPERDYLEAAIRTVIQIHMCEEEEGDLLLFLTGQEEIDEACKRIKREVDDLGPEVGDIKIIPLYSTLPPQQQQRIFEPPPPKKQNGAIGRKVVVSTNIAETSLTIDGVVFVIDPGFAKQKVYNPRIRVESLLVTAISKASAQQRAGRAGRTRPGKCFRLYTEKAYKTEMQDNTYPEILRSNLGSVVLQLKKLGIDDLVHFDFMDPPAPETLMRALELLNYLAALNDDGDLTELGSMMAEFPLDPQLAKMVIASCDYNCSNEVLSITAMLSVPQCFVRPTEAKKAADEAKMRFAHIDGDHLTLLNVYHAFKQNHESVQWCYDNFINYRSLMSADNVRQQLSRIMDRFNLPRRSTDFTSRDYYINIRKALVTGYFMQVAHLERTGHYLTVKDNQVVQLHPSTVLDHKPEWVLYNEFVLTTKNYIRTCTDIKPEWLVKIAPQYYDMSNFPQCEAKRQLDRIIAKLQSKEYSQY
T4 sequence (P07947 whole entry): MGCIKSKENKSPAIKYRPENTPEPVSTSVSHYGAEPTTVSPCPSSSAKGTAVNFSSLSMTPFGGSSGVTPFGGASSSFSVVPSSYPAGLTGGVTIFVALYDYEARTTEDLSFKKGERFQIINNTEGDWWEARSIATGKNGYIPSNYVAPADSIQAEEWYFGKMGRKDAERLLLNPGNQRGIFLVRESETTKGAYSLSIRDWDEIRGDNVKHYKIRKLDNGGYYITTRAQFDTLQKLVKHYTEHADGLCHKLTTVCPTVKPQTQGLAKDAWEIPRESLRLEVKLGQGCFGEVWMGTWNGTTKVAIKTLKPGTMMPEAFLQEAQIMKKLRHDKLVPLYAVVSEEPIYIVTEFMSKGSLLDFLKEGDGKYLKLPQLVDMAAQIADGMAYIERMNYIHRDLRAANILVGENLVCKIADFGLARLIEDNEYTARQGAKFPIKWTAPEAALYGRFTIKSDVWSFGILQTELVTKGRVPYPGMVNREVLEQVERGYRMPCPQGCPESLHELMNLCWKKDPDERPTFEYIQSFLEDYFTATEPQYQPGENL
T14 sequence (Q6PJG6 whole entry): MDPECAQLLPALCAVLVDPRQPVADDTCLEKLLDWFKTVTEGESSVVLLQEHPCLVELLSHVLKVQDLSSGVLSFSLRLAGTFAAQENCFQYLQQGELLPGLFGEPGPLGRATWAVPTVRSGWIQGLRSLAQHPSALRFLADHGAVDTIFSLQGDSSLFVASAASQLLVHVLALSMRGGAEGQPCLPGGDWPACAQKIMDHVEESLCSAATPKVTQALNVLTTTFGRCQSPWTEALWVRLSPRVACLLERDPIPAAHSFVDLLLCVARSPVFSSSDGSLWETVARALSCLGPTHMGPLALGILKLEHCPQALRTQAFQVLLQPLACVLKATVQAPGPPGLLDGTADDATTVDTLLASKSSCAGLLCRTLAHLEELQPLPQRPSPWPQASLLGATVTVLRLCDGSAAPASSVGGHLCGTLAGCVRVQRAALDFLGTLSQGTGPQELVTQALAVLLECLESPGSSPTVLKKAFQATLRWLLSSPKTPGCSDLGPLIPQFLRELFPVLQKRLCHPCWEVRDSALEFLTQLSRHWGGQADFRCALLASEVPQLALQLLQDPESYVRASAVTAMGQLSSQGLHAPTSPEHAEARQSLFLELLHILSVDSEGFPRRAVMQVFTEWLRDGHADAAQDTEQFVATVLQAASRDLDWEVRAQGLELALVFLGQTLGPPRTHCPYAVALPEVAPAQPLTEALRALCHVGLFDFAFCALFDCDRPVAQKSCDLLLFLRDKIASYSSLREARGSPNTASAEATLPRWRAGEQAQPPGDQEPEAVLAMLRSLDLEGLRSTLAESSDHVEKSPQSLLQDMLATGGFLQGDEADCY
T7 sequence (P28070 46-264): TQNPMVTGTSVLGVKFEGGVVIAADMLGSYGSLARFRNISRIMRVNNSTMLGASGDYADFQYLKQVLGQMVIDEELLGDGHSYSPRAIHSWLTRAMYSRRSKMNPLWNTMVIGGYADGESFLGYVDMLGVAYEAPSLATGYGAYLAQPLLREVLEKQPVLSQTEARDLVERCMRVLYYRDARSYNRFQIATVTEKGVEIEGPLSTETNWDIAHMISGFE
T8 sequence (P29323 19-1055): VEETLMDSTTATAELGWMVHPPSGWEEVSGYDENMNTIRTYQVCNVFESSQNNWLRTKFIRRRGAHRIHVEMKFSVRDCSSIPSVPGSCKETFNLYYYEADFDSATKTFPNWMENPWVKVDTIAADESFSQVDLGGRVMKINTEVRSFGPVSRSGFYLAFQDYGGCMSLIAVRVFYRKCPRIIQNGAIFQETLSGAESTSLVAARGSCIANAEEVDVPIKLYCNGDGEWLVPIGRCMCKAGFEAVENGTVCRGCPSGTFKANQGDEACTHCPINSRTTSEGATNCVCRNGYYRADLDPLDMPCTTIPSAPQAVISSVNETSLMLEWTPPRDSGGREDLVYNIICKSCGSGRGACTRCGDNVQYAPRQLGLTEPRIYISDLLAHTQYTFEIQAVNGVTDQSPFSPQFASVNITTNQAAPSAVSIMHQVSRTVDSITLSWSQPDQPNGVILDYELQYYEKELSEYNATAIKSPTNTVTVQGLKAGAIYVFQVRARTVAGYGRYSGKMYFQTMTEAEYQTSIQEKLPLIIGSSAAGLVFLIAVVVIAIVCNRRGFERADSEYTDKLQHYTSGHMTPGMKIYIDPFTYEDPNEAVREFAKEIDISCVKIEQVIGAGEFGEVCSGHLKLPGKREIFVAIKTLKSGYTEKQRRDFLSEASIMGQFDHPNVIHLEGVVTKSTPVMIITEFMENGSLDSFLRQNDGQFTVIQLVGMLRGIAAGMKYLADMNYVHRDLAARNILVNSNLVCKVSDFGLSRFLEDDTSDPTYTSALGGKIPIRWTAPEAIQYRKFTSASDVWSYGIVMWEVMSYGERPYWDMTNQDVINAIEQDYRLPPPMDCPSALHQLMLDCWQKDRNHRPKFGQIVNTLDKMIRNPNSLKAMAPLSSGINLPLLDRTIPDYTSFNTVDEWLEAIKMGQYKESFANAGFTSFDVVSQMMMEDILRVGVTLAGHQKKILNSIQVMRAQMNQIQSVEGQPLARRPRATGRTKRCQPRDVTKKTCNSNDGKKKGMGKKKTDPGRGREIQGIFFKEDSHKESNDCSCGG
T5 sequence (P23528 whole entry): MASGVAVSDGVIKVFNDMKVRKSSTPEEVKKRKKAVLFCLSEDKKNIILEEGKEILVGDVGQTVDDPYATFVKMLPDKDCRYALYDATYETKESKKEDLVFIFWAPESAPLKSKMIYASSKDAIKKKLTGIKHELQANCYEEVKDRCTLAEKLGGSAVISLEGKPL
T11 sequence (Q13163 whole entry): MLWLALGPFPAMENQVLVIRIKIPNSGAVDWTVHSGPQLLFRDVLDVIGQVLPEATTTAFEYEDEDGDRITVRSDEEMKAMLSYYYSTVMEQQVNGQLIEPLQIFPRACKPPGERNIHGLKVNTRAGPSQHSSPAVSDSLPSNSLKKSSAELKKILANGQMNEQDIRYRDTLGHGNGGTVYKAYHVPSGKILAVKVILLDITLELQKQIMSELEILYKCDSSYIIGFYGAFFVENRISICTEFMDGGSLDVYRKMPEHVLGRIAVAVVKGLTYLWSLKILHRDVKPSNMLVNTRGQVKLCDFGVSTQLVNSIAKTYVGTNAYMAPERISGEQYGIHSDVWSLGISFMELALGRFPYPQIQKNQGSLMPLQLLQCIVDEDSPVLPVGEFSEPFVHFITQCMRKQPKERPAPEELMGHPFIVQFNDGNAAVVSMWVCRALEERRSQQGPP

As to `Cc1ccc(C(=O)Nc2ccc(CN3CCN(C)CC3)c(C(F)(F)F)c2)cc1C#Cc1cnc2cccnn12` [PON], the “Average LFQ PON_WT” value in experiment [1] is reported as 20.8395; in experiment [2] it was 20.1604; in [3] it was 20.8184; in [4], 25.9404; in [5] it was 19.4794; in [6], 21.3466. Also, the “Average LFQ PON_WT” value stood at 21.0941 in experiment [7]; 23.9034 in [8]; 24.3032 in [9]; 18.8692 in [10]; 19.6379 in [11]; 23.2725 in experiment [12]. Moreover, the results for the “Average LFQ PON_WT” value in [13] and in [14] were 27.1637 and 19.9568, respectively.

Regarding `Cc1ccc(-c2nn(C(C)(C)CNC(=O)c3ccncc3)c3ncnc(N)c23)cc1` [WEHI‐345, reference compound], the “increase in serum levels of TNF in mice challenged with MDP” value in [15] was “only partially inhibited”.
